The values below are quoted from earlier work in patent US20150258192A1, “COMPOSITIONS AND METHODS FOR PREVENTING OR TREATING CHRONIC LUNG ALLOGRAFT DYSFUNCTION (CLAD) AND IDIOPATHIC PULMONARY FIBROSIS (IPF)” (priority 2014, published 2015).

The IC50 is the concentration that inhibits the measured activity by half.

One data set concerns PKA. The settings on record: 1 μM; cited from earlier work.
The next data set deals with CaMKIV (Homo sapiens, UniProt Q16566). The settings on record: 1 μM; cited from earlier work.
Data set [1] concerns Ca^2+/calmodulin-dependent protein kinase II (CaMKII). The settings on record: cited from earlier work.
In the next data set the test system is PKC. The following applies: 1 μM; cited from earlier work.

Chain of CaMKIV (Q16566 whole entry, species assumed): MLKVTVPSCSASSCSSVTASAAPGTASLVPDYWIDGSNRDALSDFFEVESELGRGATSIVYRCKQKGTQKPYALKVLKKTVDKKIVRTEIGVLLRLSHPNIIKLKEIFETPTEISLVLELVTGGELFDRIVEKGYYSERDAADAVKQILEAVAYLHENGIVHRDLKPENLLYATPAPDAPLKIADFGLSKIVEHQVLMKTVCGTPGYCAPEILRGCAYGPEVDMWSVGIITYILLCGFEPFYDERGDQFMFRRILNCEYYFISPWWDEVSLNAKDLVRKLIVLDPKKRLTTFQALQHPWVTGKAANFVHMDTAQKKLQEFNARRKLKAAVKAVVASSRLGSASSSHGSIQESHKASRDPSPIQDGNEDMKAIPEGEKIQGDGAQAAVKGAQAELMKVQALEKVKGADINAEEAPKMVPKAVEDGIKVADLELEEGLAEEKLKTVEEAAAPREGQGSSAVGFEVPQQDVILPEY

For “autocamtide-2 related inhibitory peptide [AIP]”, the PKA activity result in the data set with PKA is recorded as “not affected”. On CaMKIV, the CaMKIV activity result was “not affected”. Moreover, the CaMKII activity result in data set [1] (1 μM) was “inhibited completely”. Further, the IC50 in data set [1] is 100 nM. Also, the PKC activity result in the data set on PKC is listed as “not affected”.
